Results taken from US12173317B2, “Use of histone modifiers to reprogram effector T cells” (Board of Regents, The University of Texas System, priority 2018, dated 2024).
“Also recorded” adds a separate entry of the source.

Experiments:
[1] = system: histone H3 acetylation (AcH3); assay: Western blot of H3 acetylation (AcH3) level; format: cell-based, human
From the text: (§1) Western Blot analysis: Equal number of cells was lysed in 2×SDS loading buffer and loaded for immunoblot analysis with different antibodies (Cell Signaling). Anti-β-actin-HRP was from Santa Cruz Biotech. β-actin was used as the loading control for all immunoblot experiments. The results were quantified using ImageJ and normalized to the density of actin in the corresponding samples.

[2] = system: tumor infiltrating lymphocytes (TILs)
Method: The effect of IL-21 and Panobinostat in the clinical-relevant TIL expansion was assessed.
To examine the possible de-differentiating effect of an HDAC inhibitor/IL-21 combination, TILs were untreated or pretreated with SAHA for 24 hours, then subjected to regular REP (irradiated PBMC and LCL cells, anti-CD3 and IL-2), or REP with SAHA/IL-21.
The TILs were cultured from patient melanoma tumors. […] For studies with SAHA, SAHA was used at 1-5 μM.
TILs were cultured in 50% AIM-V, 50% TIL complete medium which contains RPMI1640, 10% human AB serum, 10 mM HEPES, and 2-Mercaptoethanol. […] IL-21 (30 ng/ml) or HDACi SAHA (1-5 μM) or Panobinostat (1-3 nM) was added on day 0, 4 and 7 if included in the expansion. After 14 days, expanded cells were subjected to further analyses.

expanded CTLs = assay: CFSE proliferation of expanded CTLs with IL-2 or IL-15; format: cell-based, human; conditions: 2 days
Method: (§2) The expanded TILs/CTLs were also stained with antibodies against CD8 and CD132 and analyzed using the CD8^+ gate. […] In addition, the expanded CTLs were labeled with carboxyfluorescein succinimidyl ester (CFSE) and cultured with IL-2 or IL-15 for 2 days to check cell division. […] (FIG. 4B).
Central memory function associated with the IL-21/Pano-induced CD28^+CD62L^+ population was evaluated by the ability of these central memory-like T cells to undergo homeostatic proliferation in response to IL-7 and IL-15. ETC cells expanded with four different protocols (regular, adding IL-21 alone, adding Pano alone, or IL-21+Pano) were labeled with CFSE and cultured with IL-2, IL-7 or IL-15 for 2 days. […] Adding Panobinostat alone to REP increased cell proliferation in response to IL-15 but not to IL-2. […] Since IL-2 and IL-15 share CD132 (γC) and CD122 receptor subunits, CD132 and CD122 levels were assessed on the surface of these cells.

[3] = system: MART1 (M27)-specific effector CD8+ T cells; assay: CD28 level on M27-specific effector CD8+ T cells by flow cytometry; format: cell-based, human; conditions: activation with M27-pulsed mature dendritic cells, 4 days
Method: The present studies were performed to develop a method to reprogram or de-differentiate effector T cells that express CD45RO to central memory T cells that express CD62L and CD28 (FIG. 8). The effect of IL-21 and histone deacetylase inhibitor (HDACi) treatment on central memory markers CD28 and CD62L was evaluated. MART1 (M27)-specific effector CD8^+ T cells were untreated or pretreated with SAHA for 24 hours, followed by activation with M27-pulsed mature dendritic cells in the presence or absence of SAHA/IL-21 for 4 days.
(§3) Flow Cytometry: Cells were stained with antibodies against CD8, CD28, CD62L or CD132. All FACS data were acquired via an LSR II flow cytometer and analyzed via FlowJo software (Tree Star, Inc.).
To assess the effect of SAHA/IL-21 on CD28 expression in the context of a more physiologic, antigen-specific (in contrast to non-specific polyclonal) stimulation, this effect was evaluated on MART1 (M27)-specific effector/effector memory cells generated using peptide-pulsed autologous dendritic cells. MART1 (M27)-specific effector CD8^+ T cells (CD45RO^+, CD28-neg, CD62L-neg) were generated following iterative cycles of in vitro stimulation, tetramer-guided sorting of M27-specific CTL and expansion to uniformity (>95% MART-1-specific effector CTL). First, the effect of SAHA was evaluated on pSTAT3 binding to the CD28 promoter region. […]

target tumor cells = assay: Chromium release assay (CRA); format: cell-based; conditions: effector:tumor 20:1, 4 hours, compared with regular expansion
Method: (§4) Chromium Release Assay (CRA): Tumor cells were labeled with Cr51 before being incubated with antigen-specific CTLs at effector:tumor of 20:1 for 4 hours. The Cr51 amount in the supernatants was measured and the killing efficiency was calculated as % killing=100%×(sample average−average of negative control)/(average of positive control average of negative control).
as §4, with “control−average” for “control average”

[4] = system: tumor antigen-specific CTL cells; assay: Intracellular staining of IFN-γ and granzyme B; format: cell-based, human; conditions: restimulated with tumor cells
Method: Intracellular Staining: The cells were restimulated with tumor cells for 16 hours and stained with antibody against CD8, followed by fixation and staining with antibodies against IFN-γ and granzyme B in permeabilization buffer. The cells were washed and resuspended in FACS buffer before analysis.

M27-specific CTLs = assay: CD28 expression in M27-specific CTLs generated with IL-21; format: cell-based, human
From the text: (§5) IL-21 upregulates CD28 expression on activated human naïve CD8^+ T cells: CD28 is a pivotal costimulatory molecule for naïve T cell activation and memory T cell function. […] To investigate the molecular mechanisms of IL-21-induced CD28 expression, melanoma antigen recognized by T cells (MART1, M27)-specific CTLs were generated in the absence or presence of IL-21 as previously described (Li et al., 2005). […] To further corroborate the findings, sort-purified naïve human CD8^+ T cells (CD45RA^+CCR7^+) from healthy donors were activated with anti-CD3/CD28 beads in the absence or presence of IL-21 and surface CD28 expression was detected by flow cytometry.
as §3
Quantitative real-dime PCR: Total RNA was prepared using Qiagen RNA purification kit. cDNA. was made using Superscript reverse transcriptase and oligo(dT) primers (Life Technology), and gene expression was detected with a Bio-Rad iCycler Optical System using iQ SYBR green real-time PCR kit (Bio-Rad Laboratories, Inc.). The data were normalized to the reference gene RPL13A. RPL13A primer was purchased from Qiagen. Other primer pairs used were: CD28 forward: […] (SEQ ID NO:2), reverse: […] (SEQ ID NO: 3); CD62L forward: […] […]

STAT3 = assay: Western blot of IL-21-induced pSTAT3; format: cell-based, human
Method: (§6) Polyclonal stimulation of CD8^+ T cells: Naïve CD8^+ T cells (CD8^+CD45RA^+CCR7^+) were flow cytometry-sorted or were isolated using EasySep™ Human Naïve CD8^+ T Cell Enrichment Kit (StemCell). In some experiments, total CD8^+ T cells were negatively selected using EasySep™ Human CD8^+ T Cell Enrichment Kit (StemCell). The purity of the naïve or total CD8^+ T cells was greater than 95% as determined by flow cytometry. CD8^+ T cells were cultured in RPMI 1640 with 10% fetal bovine serum and penicillin/streptomycin. CD8^+ T cells were activated using Dynabeads® Human T-Activator CD3/CD28 for T-Cell Expansion and Activation (Life Technologies) at a bead:cell ratio of 1:1 or together with 30 ng/mL human IL-21 (Peprotech). At the indicated time points, T cells were harvested and beads were removed using a magnet before downstream analysis.
as §1

CD132 (γC) = assay: CD132 surface level on expanded CTLs by flow cytometry; format: cell-based, human; conditions: CD8+ gate
From the text: as §2, §3

STAT1 = assay: Western blot of pSTAT1; format: cell-based, human; conditions: naïve CD8+ T cells, anti-CD3/CD28 beads, 30 minutes after activation
Method: as §6, §1

[5] = system: tumor antigen-specific CTL lines; assay: REP and mini-REP expansion fold of CTLs; format: cell-based, human; conditions: 2 weeks
Method: The TILs were cultured from patient melanoma tumors. […] After 14 days, cells were used for further analyses. For studies with SAHA (FIG. 2), SAHA was used at […].
Mini-REP was started scaling down from T25 flasks to 24-well plates accordingly. IL-21 and Panobinostat dose remained unchanged.
To examine the clinical applicability of Panobinostat (Pano) in the setting of antigen-specific ACT, MART1 (M27)-specific effector/effector memory cells generated via the ETC approach were used and expanded in vitro by REP, as previously described (Yee, 2014). Cells were expanded with four different protocols (regular, adding IL-21 alone, adding Pano alone, or IL-21+Pano). […] It was posited that Panobinostat, like SAHA, enabled STAT3 and other transcription factors/cofactors to access binding sites and induce CD28 and CD62L expression.
The TILs were cultured from patient melanoma tumors. […] After 14 days, cells were used for further analyses.

human CD8+ T cells = assay: CD28 expression in polyclonally activated human CD8+ T cells; format: cell-based
From the text: as §5, §6, §3
Quantitative real-dime PCR: Total RNA was prepared using Qiagen RNA purification kit. cDNA. was made using Superscript reverse transcriptase and oligo(dT) primers (Life Technology), and gene expression was detected with a Bio-Rad iCycler Optical System using iQ SYBR green real-time PCR kit (Bio-Rad Laboratories, Inc.). The data were normalized to the reference gene RPL13A. RPL13A primer was purchased from Qiagen. Other primer pairs used were: CD28 forward: […] (SEQ ID NO:2), reverse: […] (SEQ ID NO: 3); CD62L forward: […] (SEQ ID NO: 4), reverse: […] (SEQ ID NO: 5); Additional primers included lymphoid enhancer-binding factor 1 (LEFI) forward: […] (SEQ ID NO: 6), reverse: […] (SEQ ID NO: 7); transcription factor 1 (TCF1) forward: […] (SEQ ID NO: 8), reverse: CCTCGACCGCCTCTTCTTC (SEQ ID NO: 9).
Human shRNA Knockdown: Total CD8^+ T cells were isolated and transfected with 5 μg negative control, STAT1 shRNA, or STAT3 shRNA (Dharmacon) using Amaxa human T cell Nucleofector Kit according to the manufacturer's instructions (Lonza). Transfected cells were rested for 1-2 days and live GFP^+ cells were sort-purified for immunoblot analysis or were stimulated for 7 days as previously described before further analysis.

STAT5 = assay: Western blot of pSTAT5; format: cell-based, human; conditions: naïve CD8+ T cells, anti-CD3/CD28 beads, 30 minutes after activation
Method: as §6, §1

CD28 promoter = assay: Chromatin immunoprecipitation (ChIP) on the CD28 promoter; format: cell-based, human
Method: Chromatin immunoprecipitation (ChIP): ChIP was performed using a ChIP Assay Kit according to the manufacturer's instructions (Millipore). Quantitative real-time PCR was performed with primers: CD28 promoter proximal STAT sites: forward […] (SEQ ID NO:10), reverse […] (SEQ ID NO: 11); distal STAT sites: forward […] (SEQ ID NO: 12), reverse […] (SEQ ID NO: 13); Rabbit IgG was used as a negative control.

Molecule: Cc1[nH]c2ccccc2c1CCNCc1ccc(/C=C/C(=O)NO)cc1 [Panobinostat]
- Panobinostat dose that increased AcH3 level [1]: ≥ 0.5 nM
- cytotoxicity ([2]; screen of HDACi): minimal cytotoxicity

Molecule: IL-21: Human Interleukin 21, protein cytokine of 162 amino acids (SEQ ID NO:1)
- proliferation in response to IL-2 (expanded CTLs): enhanced
- proliferation in response to IL-15 (expanded CTLs): enhanced
- CD28 expression [3]: slightly increased; also recorded: not observed
- tumor cell killing (target tumor cells): enhanced
- IFNγ and granzyme B expression [4]: augmented
- CD28 mRNA level (M27-specific CTLs): greatly augmented
- CD28 expression (M27-specific CTLs; compared with cells generated in the absence of IL-21): significantly higher
- IL-21-induced STAT3 phosphorylation levels, naïve compared with effector CD8+ T-cells (STAT3): comparable
- STAT3 phosphorylation (STAT3; effector CD8+ T cells): induced STAT3 phosphorylation
- STAT3 phosphorylation (STAT3; naïve CD8+ T cells, anti-CD3/CD28 beads, 30 minutes after activation): strong
- CD132 (γ chain) surface expression (CD132 (γC)): upregulate; also recorded: significantly increased
- STAT1 phosphorylation (STAT1): strong
- yield of cell expansion ([5]; mini-REP): dramatically increased
- expansion yield / expansion fold ([5]; regular REP): similar
- IL-21-mediated enhancement of CD28 expression (human CD8+ T cells; CD8+ T cells from Job's syndrome patients): completely abrogated
- IL-21-induced CD28 protein and mRNA upregulation diminished (human CD8+ T cells; STAT1 shRNA-transfected CD8+ T cells): not
- IL-21-induced CD28 protein and mRNA upregulation (human CD8+ T cells; STAT3 shRNA-transfected CD8+ T cells): diminished
- CD28 expression (human CD8+ T cells; activated TEMRA CD8+ T cells): minimally upregulated
- CD28 mRNA level (human CD8+ T cells; naïve CD8+ T cells, anti-CD3/CD28): greatly augmented
- CD28 surface level expression (human CD8+ T cells; naïve CD8+ T cells, anti-CD3/CD28 beads): significantly increased; also recorded: upregulates
- expression of CD28 at protein and mRNA levels (human CD8+ T cells; total CD8+ T cells from healthy donors): increased
- STAT5 phosphorylation (STAT5): weak
- enrichment of STAT3 at proximal and distal CD28 promoter regions (CD28 promoter; anti-CD3/CD28 and IL-21 relative to anti-CD3/CD28 alone): 2-3 fold

Molecule: O=C(CCCCCCC(=O)Nc1ccccc1)NO [SAHA, Suberoylanilide Hydroxamic Acid]
- CD28 expression [3]: upregulated
- AcH3 level by western blot ([1]; H3 and β-actin as loading controls): dose-dependent increase; also recorded: increases H3 acetylation in a dose-dependent manner
- SAHA concentration that augmented AcH3 level ([1]; effector CD8+ T cells): ≥ 1 µM
- SAHA concentration that could augment AcH3 levels ([1]; titration study, effector CD8+ T cells): ≥ 1 µM
- cell death in REP culture [2]: caused dramatic cell death
- viable cells at the end of REP [2]: few viable cells
- AcH3 level on the CD28 promoter (CD28 promoter; M27-specific effector CD8+ T cells, SAHA 24 hours): significantly increased
- IL-21-induced STAT3 (pSTAT3) binding to the CD28 promoter (CD28 promoter; SAHA 24 hours, then IL-21 30 minutes): allowing IL-21-induced STAT3 to bind to the same DNA region; also recorded: increased; also recorded: allows IL-21-induced pSTAT3 to access the CD28 promoter
